Laboratory results published in PubChem BioAssay (NCI).
Where “and” joins values, the source holds several entries; their conditions need not be identical. Equal values may be shown once.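 A five-concentration, 48-hour dose response in 96-well plates underlies each endpoint, interpolated linearly between surrounding concentrations. GI50 marks 50% less growth. TGI denotes the concentration required for complete inhibition of growth.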

tested on: MDA-MB-468 breast; assay: inhibition of tumour cell growth, NCI panel, 48 h

SMILES | GI50 | TGI
CO[C@H]1C[C@@H]2CC[C@@H](C)[C@@](O)(O2)C(=O)C(=O)N2CCCC[C@H]2C(=O)O[C@H]([C@H](C)C[C@@H]2CC[C@@H](OCCO)[C@H](OC)C2)CC(=O)[C@H](C)C=C(C)[C@@H](O)[C@@H](OC)C(=O)[C@H](C)C[C@H](C)/C=C/C=C/C=C1C | < 11.7 nM | 14900 nM
COC(=O)c1ccc(NC(=O)Oc2ccc(N(CCCl)CCCl)cc2)cc1 | 1220 nM | 9770 nM
CCN(CC)Cc1cc2[nH]c3c4ccc(Cl)cc4ncc3c2cc1OC | 1870 nM and 1520 nM | 3640 nM and 3000 nM
N=c1c2c(=N)n3c(nc2nc2n1-c1ccccc1Sc1ccccc1-2)sc1cc(Cl)ccc13 | 1340 nM | 5410 nM
O=C1NC(=NCCCc2ccccc2)S/C1=C\c1ccc2ncccc2c1 | 4370 nM | 17400 nM
Cc1cc(Cl)nc(N(CCCNc2ccnc3cc(Cl)ccc23)Cc2ccco2)n1 | 1120 nM | 3940 nM
COc1ccc(N(C)c2nc(N)nc3sc4c(c23)CCCC4)cc1 | < 10 nM | –
O=C(Nc1nc2ccccc2s1)Nc1ccc([N+](=O)[O-])cc1Cl | 10100 nM | 27200 nM
CC(=O)[O][Hg][c]1c(C)c(C)cc(C)c1C | 793 nM | 2150 nM
CC[C@H](C)[C@H](NC(=O)[C@H]1CCCCN1C)C(=O)N(C)[C@H](C[C@@H](OC(C)=O)c1nc(C(=O)N[C@@H](Cc2ccccc2)C[C@H](C)C(=O)O)cs1)C(C)C | 0.378 nM and 1.65 nM | 3.98 nM
CN(CC(=O)N(Cc1ccc(C2CCCCC2)cc1)c1ccc(C(=O)O)cc1)S(=O)(=O)c1c(F)c(F)c(F)c(F)c1F | 1760 nM | 3270 nM
COc1nnc2ccc(N3CCC(c4ccc(OCCN5CCN(C)C(=O)[C@H]5C)cc4)CC3)nn12 | 52 nM | > 34800 nM
CSc1ccc2c(c1)C(N1CCN(C)CC1)Cc1ccccc1S2 (centres undefined) | 1470 nM | 3060 nM
CN(CCCNC(=O)CCOCCOCCOCCNC(=O)Cc1ccc2ccc3cccc4ccc1c2c34)CCCNc1cc(-c2ccc3ccccc3c2)nc2ccccc12 | 509 nM | 1030 nM
Cn1cc(C2=C(c3cn(CCCCCSC(=N)N)c4ccccc34)C(=O)NC2=O)c2ccccc21 | 1550 nM | 5460 nM
O=C(CN1C(=O)S/C(=C\C(Cl)=C\c2ccccc2)C1=O)NC1C=CS(=O)(=O)C1 (centres undefined) | 531 nM | 2290 nM
CN1CCN(CCCOc2cccc3nc(Nc4ccc(Cl)c(C(F)(F)F)c4)ccc23)CC1 | 1600 nM | 3220 nM
CC[C@H](C)[C@H](NC(=O)CN(C)C)C(=O)N(C)[C@H](C[C@@H](OC(C)=O)c1nc(C(=O)NC23CC(C(=O)OC)(C2)C3)cs1)C(C)C | 130 nM | > 25000 nM
CN1CCN(c2nc(-c3cnc4ccccc4n3)cc3ccccc23)CC1 | 4980 nM | 10600 nM
CN(Cc1cnc2nc(N)nc(N)c2n1)c1ccc(C(=O)NC(CCC(=O)O)C(=O)O)cc1Br (centres undefined) | < 10 nM | 1910 nM
COc1cc2nc3cc([N+](=O)[O-])ccc3c(NCCNCC(C)(C)O)c2cc1OC | 220 nM | 614 nM
O=[N+]([O-])c1cccc(C2CC(c3ccccc3)=Nc3ccccc3S2)c1 (centres undefined) | 13400 nM | 31200 nM
c1ccc2c3c([nH]c2c1)C(c1ccc(C2NCCc4c2[nH]c2ccccc42)cc1)NCC3 (centres undefined) | 367 nM | 1340 nM
Cn1c(-c2c(N)n(CCCN3CCOCC3)c3nc(C#N)c(C#N)nc23)nc2ccccc21 | 4640 nM | > 100000 nM
COc1ccc(/C(C#N)=C2C=C/C(=N/O)c3ccccc3\2)cc1 | 395 nM | 16500 nM
